# Data reported in patent US9510592B2, “Pesticidal compositions and processes related thereto” (Dow AgroSciences LLC, priority 2012, dated 2016).
# System: Beet Armyworm (Spodoptera exigua)
# Test: Bioassay on Beet Armyworm (BAW), 128-well diet tray assay
# Assay type: in vivo
# Settings: percent mortality of second instar larvae, 50 μg/cm^2 on artificial diet, five to seven days, 25° C.; Table 3
# Method: Certain molecules disclosed in this document were tested against BAW and CEW and CL using procedures described in the following examples. In the reporting of the results, the “BAW & CEW & CL Rating Table” was used (See Table Section).
# Bioassays on BAW (Spodoptera exigua)
# Bioassays on BAW were conducted using a 128-well diet tray assay. one to five second instar BAW larvae were placed in each well (3 mL) of the diet tray that had been previously filled with 1 mL of artificial diet to which 50 μg/cm^2 of the test compound (dissolved in 50 μL of 90:10 acetone-water mixture) had been applied (to each of eight wells) and then allowed to dry. Trays were covered with a clear self-adhesive cover, and held at 25° C., 14:10 light-dark for five to seven days. Percent mortality was recorded for the larvae in each well; activity in the eight wells was then averaged. The results are indicated in the table entitled “Table 3: Assay Results” (See Table Section).
row,Compound,BAW Rating
1,Cc1cc(/C=C/C(c2cc(Cl)c(F)c(Cl)c2)C(F)(F)F)ccc1C(=O)NCC(=O)NCC(F)(F)F (stereo not drawn) [AC69],A (50-100)
2,FC(F)(F)C(/C=C/c1ccc(-n2cncn2)c(Cl)c1)c1cc(Cl)cc(Cl)c1 (stereo not drawn) [DC50],A (50-100)
3,Fc1cc(F)cc(C(/C=C/c2ccc(-n3cncn3)cc2)C(F)(F)F)c1 (stereo not drawn) [DC8],A (50-100)
4,Cc1cc(/C=C/C(c2cc(Cl)cc(Cl)c2)C(F)(F)F)ccc1C(=O)NCc1ccccc1 (stereo not drawn) [AC11],A (50-100)
5,COc1c(Cl)cc(C(/C=C/c2ccc(-n3cncn3)cc2)C(F)(F)F)cc1Cl (stereo not drawn) [DC20],A (50-100)
6,O=C(CC(F)(F)F)NCc1ccc(/C=C/C(c2cc(Cl)c(Cl)c(Cl)c2)C(F)(F)F)cc1 (stereo not drawn) [CC6],A (50-100)
7,Cc1cc(/C=C/C(c2cc(Cl)c(F)c(Cl)c2)C(F)(F)F)ccc1C(=O)NCc1ccc(Cl)cn1 (stereo not drawn) [AC53],A (50-100)
8,Cc1cc(/C=C/C(c2cc(Cl)cc(Cl)c2)C(F)(F)F)ccc1C(=O)NCC(=O)NC1CC1 (stereo not drawn) [AC40],A (50-100)
9,COc1c(Cl)cc(C(/C=C/c2ccc(-n3cncn3)c(C#N)c2)C(F)(F)F)cc1Cl (stereo not drawn) [DC34],A (50-100)
10,Cc1cc(/C=C/C(c2cc(Cl)c(Cl)c(Cl)c2)C(F)(F)F)cc(C#N)c1-n1cncn1 (stereo not drawn) [DC45],A (50-100)
11,O=C(CC(F)(F)F)NCc1ccc(/C=C/C(c2cc(Cl)c(Cl)c(Cl)c2)C(F)(F)F)cc1F (stereo not drawn) [CC27],A (50-100)
12,O=C(NCCc1ccc(Cl)nc1)c1ccc(/C=C/C(c2cc(Cl)c(Cl)c(Cl)c2)C(F)(F)F)cc1Br (stereo not drawn) [AC113],B (More than 0-Less than 50)
13,"O=C(NCC(=S)NCC(F)(F)F)c1ccc(/C=C/C(c2cc(Cl)c(Cl)c(Cl)c2)C(F)(F)F)cc1Br (stereo not drawn) [AC92, (E)-2-Bromo-N-(2-thioxo-2-((2,2,2-trifluoroethyl)amino)ethyl)-4-(4,4,4-trifluoro-3-(3,4,5-trichlorophenyl)but-1-en-1-yl)benzamide]",A (50-100)
14,"O=C(CC(F)(F)F)NCc1ncc(/C=C/C(c2cc(Cl)c(Cl)c(Cl)c2)C(F)(F)F)cc1Cl (stereo not drawn) [CC44, (E)-N-((3-Chloro-5-(4,4,4-trifluoro-3-(3,4,5-trichlorophenyl)-but-1-en-1-yl)pyridin-2-yl)methyl)-3,3,3-trifluoropropanamide]",A (50-100)
15,O=C(CC(F)(F)F)NCc1ccc(/C=C/C(c2cc(Cl)cc(Cl)c2)C(F)(F)F)cc1 (stereo not drawn) [CC3],A (50-100)
16,Cc1cc(/C=C/C(c2cc(Cl)c(Cl)c(Cl)c2)C(F)(F)F)ccc1C(=O)NC1CSC1 (stereo not drawn) [AC23],A (50-100)
17,O=C(NCc1ccc(Cl)nc1)c1ccc(/C=C/C(c2cc(Cl)c(F)c(Cl)c2)C(F)(F)F)cc1F (stereo not drawn) [AC65],A (50-100)
18,Cc1cc(/C=C/C(c2cc(Cl)cc(Cl)c2)C(F)(F)F)ccc1C(=O)NC1CSC1 (stereo not drawn) [AC10],A (50-100)
19,C=CCNC(=S)NCc1ccc(/C=C/C(c2cc(Cl)c(Cl)c(Cl)c2)C(F)(F)F)cc1Cl (stereo not drawn) [CC38],A (50-100)
20,O=C(NCc1ccc(/C=C/C(c2cc(Cl)c(Cl)c(Cl)c2)C(F)(F)F)cc1C(F)(F)F)c1cccnc1 (stereo not drawn) [CC23],A (50-100)
21,O=C(CC(F)(F)F)NNc1ccc(/C=C/C(c2cc(Cl)c(Cl)c(Cl)c2)C(F)(F)F)cc1 (stereo not drawn) [CC51],A (50-100)
22,CC(=O)Nc1ncn(-c2ccc(/C=C/C(c3cc(Cl)cc(Cl)c3)C(F)(F)F)cc2C#N)n1 (stereo not drawn) [DC39],A (50-100)
23,Cc1cc(/C=C\C(c2cc(Cl)cc(Cl)c2)C(F)(F)F)ccc1C(=O)NCC(=O)NC1CC1 (stereo not drawn) [AC93],A (50-100)
24,CCc1cc(/C=C/C(c2cc(Cl)c(F)c(Cl)c2)C(F)(F)F)ccc1C(=O)NCc1ccc(Cl)nc1 (stereo not drawn) [AC72],A (50-100)
